{"source": "patent US20250108049A1", "about": "“COMPOUNDS FOR TREATING MDS-ASSOCIATED ANEMIAS AND OTHER CONDITIONS” (Agios Pharmaceuticals, Inc., priority 2021, published 2025)", "key": {"Polg^D257A mice [1]": {"system": "Polg^D257A mice", "experiment": "Bone marrow aspirate flow cytometry of erythroblast populations in Polg^D257A mice (Example 3)", "format": "in vivo, mouse", "conditions": "10 mg/kg/day in chow, 8 months of treatment", "protocol": "(§1) To determine the impacts of mitapivat and Compound 1 under these conditions, bone marrow aspirates from diseased mice were collected and populations of erythroblasts were evaluated at various stages of maturation using flow cytometry. Hemoglobin (Hb), red blood cell (RBC) counts, and reticulocyte fractions were also monitored every 4 weeks in whole blood on a Sysmex XN-1000™ hematology analyzer to determine if disease burden and impact on erythroblast maturation could be detected in the periphery. Pharmacodynamics and pharmacokinetic analysis were also performed to confirm appropriate exposure and target engagement of the compounds (data not shown).\n(§2) A second experiment was performed using the Polg^D257A model (RRID:IMSR_JAX:017341) from Example 2. In this experiment 20 mice (10 males and 10 females per group) were dosed with either mitapivat or Compound 1 in chow as described in Example 2. For the mitapivat group, the compound was dosed at 200 mg/kg/day and for the Compound 1 group, Compound 1 was dosed at 10 mg/kg/day. Treatment was started when the mice were 4 months of age and was continued for 8 months (rolling enrollment). Following 8 months of treatment (at 12 months of age), an evaluation of bone marrow aspirates was conducted by flow cytometry using well established markers of erythropoiesis following a modified procedure outlined in Suragani et al., Nat Med 2014 Apr; 20(4):408-14. Bone marrow aspirates were treated with ACK lysis buffer for 3 minutes to remove red blood cells from the sample. Remaining cells were washed and maintained in PBS+5% FBS throughout the remainder of the procedure. The flow cytometry panel included live/dead (Indol), B220 (BV421), CD5 (BV421), CD71 (AF700), and Terl19 (PE) antibodies. The gating strategy used for analysis was as follows: Live/B220-CD5-/Terl19+. Ter119+cells were then gated into populations using CD71 and FSC as outlined in the literature (Suragani et al., Nat Med 2014 Apr; 20(4):408-14; FIG. 6E). […] FIG. 6D. Flow cytometry data on the mitapivat treated Polg^D257A mice is not available as the mitapivat treatment arm is not yet completed."}, "Polg^D257A mice [2]": {"system": "Polg^D257A mice", "experiment": "Whole blood Hb, RBC and reticulocyte analysis in Polg^D257A mice, second experiment (Example 3)", "format": "in vivo, mouse", "protocol": "as §1, §2\nData not shown. After 24 weeks (6 months thus far) of treatment, mitapivat increased Hb and RBC counts by 7% in Polg^D257A mice, with no change in reticulocytes. Data not shown. After 32 weeks of treatment with Compound 1 no change in Hb, RBC count, or reticulocyte fraction was observed. Data not shown."}, "NHD13 mice [3]": {"system": "NHD13 mice", "experiment": "Whole blood hematology in NHD13 mice (Example 5)", "format": "in vivo, mouse", "conditions": "NHD13 mice aged 4 months, in chow, 20 weeks of treatment", "protocol": "as §1\n(§3) A NUP98-HOXD13 (NHD13) transgenic MDS associated mouse model will also be used to assess the therapeutic benefit of disclosed compounds. See e.g., Lin et al., Blood 2005 Jul 1;106(1):287-95 and Suragani et al., Nat Med 2014 Apr;20(4):408-14. Male and female NHD13 mice aged to 4 or 10 months will be administered a disclosed compound in chow, ad libitum (e.g., mitapivat or Compound 1) daily. A full blood panel and erythroid precursor analysis will be conducted after 2 months of treatment, and results will be analyzed.\nUsing Example 4, 20 NHD13 mice (10 males and 10 females per group; RRID:IMSR_JAX:010505) aged 4 months were randomized into treatment groups using matched distribution of hemoglobin levels. Mice were dosed with either mitapivat or Compound 1 for 20 weeks in the same manner (in chow, ad libitum) as Example 3. After 20 weeks of treatment with either mitapivat or Compound 1, bone marrow aspirates of the NHD13 mice were collected as described above and analyzed by flow cytometry. […] In addition, a significant decline in survival of vehicle control NHD13 mice as previously reported (Lin et al., […] 2005 July;106(1)) was not observed. […] This mild state of disease was also supported in whole blood analysis. […] Data not shown."}, "NHD13 mice [4]": {"system": "NHD13 mice", "experiment": "Bone marrow aspirate flow cytometry of erythroblast populations in NHD13 mice (Example 5)", "format": "in vivo, mouse", "conditions": "NHD13 mice aged 4 months, in chow, 20 weeks of treatment; mild disease in model", "protocol": "as §1\nas §3, with “Male and female NHD13 mice aged to 4 or 10 months will be administered a disclosed compound in chow, ad libitum (e.g., mitapivat or Compound 1) daily.” left out\nUsing Example 4, 20 NHD13 mice (10 males and 10 females per group; RRID:IMSR_JAX:010505) aged 4 months were randomized into treatment groups using matched distribution of hemoglobin levels. […] After 20 weeks of treatment with either mitapivat or Compound 1, bone marrow aspirates of the NHD13 mice were collected as described above and analyzed by flow cytometry. […]"}, "Polg^D257A mice [5]": {"system": "Polg^D257A mice", "experiment": "Mitapivat in Polg^D257A MDS-associated anemia mouse model, whole blood hematology (Example 2)", "format": "in vivo", "conditions": "200 mg/kg/day in chow", "protocol": "as §1\nMitochondrial disruption has been linked to the development of anemia in MDS patients (see, e.g., Chen et al. Blood. 2009; 114(19):4045-53). Mitochondria play a key role in regulation of apoptosis, which is a mechanism highlighted in defunct hematopoiesis of MDS (Green et al., Science 1998; 281(5381):1309-1312, Kerbauy et al., Exp Hematol. 2007; 35(11): 1739-1746; Ahlqvist et al. Nature Communications. 2015; 6:6494). B6.12957(Cg)-Polg^tm1prol/J, or Polg^D257A, is a mouse model with a mutation in the N-terminus of the DNA polymerase γ gene that results in impaired proofreading activity in the mitochondria, leading to increased mtDNA mutagenesis (Jackson Laboratory #017341). See, Chen et al. Blood. 2009; 114(19):4045-53 and Ahlqvist et al. Nature Communications. 2015; 6:6494. […] Here, we used the Polg^D257A mouse model to evaluate the therapeutic benefit of a PK activator, mitapivat, in this mechanism of anemia.\nMale and female Polg^D257A mice were administered 200 mg/kg/day mitapivat in chow, ad libitum, for 18 weeks starting at 7.5 months of age, once anemic phenotype was established by hematology analysis. Whole blood was collected via tail vein into EDTA tubes and analyzed using a Sysmex XN-2000™ hematology system according to manufacturer protocol. Hemoglobin, red blood cells (RBCs), and reticulocytes were monitored every 2-4 weeks to track disease progression and severity. After 18 weeks of mitapivat treatment, RBC counts were elevated by 45% and hemoglobin levels were increased by 2.4 g/dL in mitapivat treated mice compared to untreated mutants.\nSee FIGS. 1A-D and FIGS. 2A-D (C57BL/6J mice were used as controls). […] Commensurate with increased hemoglobin was a marked decrease (about 30%) in reticulocyte count."}, "[6]": {"conditions": "10 mg/kg/day in chow, after 32 weeks of treatment"}, "[7]": {"conditions": "200 mg/kg/day in chow, after 24 weeks of treatment"}, "[8]": {"conditions": "male and female Polg^D257A mice, after 18 weeks"}}, "data": [{"smiles": "Cn1c2nc(Cc3cc[nH]n3)sc2c2cnn(Cc3cccc(N)n3)c(=O)c21", "note": "[Compound 1, 2-((1H-pyrazol-3-yl)methyl)-6-((6-aminopyridin-2-yl)methyl)-4-methyl-4H-thiazolo[5′,4′:4,5]pyrrolo[2,3-d]pyridazin-5(6H)-one]", "values": [{"measurement": "late basophilic and polychromatic erythroblasts (EryB) in bone marrow", "setting": "Polg^D257A mice [1]", "value": "increase"}, {"measurement": "orthochromatic and reticulocytes (EryC) in bone marrow", "setting": "Polg^D257A mice [1]", "value": "increase"}, {"measurement": "ProE (proerythrocyte) population in bone marrow", "setting": "Polg^D257A mice [1]; compared to vehicle control Polg^D257A mice", "value": "no additional impact"}, {"measurement": "basophilic erythroblasts (EryA) in bone marrow", "setting": "Polg^D257A mice [1]; vs vehicle control Polg^D257A mice", "value": "reduction"}, {"measurement": "change in Hb", "setting": "Polg^D257A mice [2]; [6]", "value": "no change"}, {"measurement": "change in RBC count", "setting": "Polg^D257A mice [2]; [6]", "value": "no change"}, {"measurement": "change in reticulocyte fraction", "setting": "Polg^D257A mice [2]; [6]", "value": "no change"}, {"measurement": "reduction in reticulocyte count", "setting": "NHD13 mice [3]", "value": 25, "unit": "%"}, {"measurement": "reduction in reticulocyte fraction (FIG. 8C)", "setting": "NHD13 mice [3]", "value": 20, "unit": "%"}, {"measurement": "response in Hb compared to vehicle controls (FIG. 8A)", "setting": "NHD13 mice [3]", "value": "minimal response"}, {"measurement": "response in RBC count compared to vehicle controls (FIG. 8B)", "setting": "NHD13 mice [3]", "value": "minimal response"}, {"measurement": "therapeutic benefit in bone marrow flow cytometry data (erythroblast populations)", "setting": "NHD13 mice [4]", "value": "difficult to detect any therapeutic benefit"}]}, {"smiles": "O=C(c1ccc(NS(=O)(=O)c2cccc3cccnc23)cc1)N1CCN(CC2CC2)CC1", "note": "[mitapivat, N-(4-(4-(cyclopropylmethyl)piperazine-1-carbonyl)phenyl)quinoline-8-sulfonamide]", "values": [{"measurement": "Hb increased", "setting": "Polg^D257A mice [2]; [7]", "value": 7, "unit": "%"}, {"measurement": "RBC counts increased", "setting": "Polg^D257A mice [2]; [7]", "value": 7, "unit": "%"}, {"measurement": "change in reticulocytes", "setting": "Polg^D257A mice [2]; [7]", "value": "no change"}, {"measurement": "decrease in reticulocyte count (FIG. 2C)", "setting": "Polg^D257A mice [5]; Polg^D257A mice", "value": "about 30%"}, {"measurement": "frequency of reticulocytes decreased", "setting": "Polg^D257A mice [5]; Polg^D257A mice, after 18 weeks", "value": 30, "unit": "%"}, {"measurement": "therapeutic benefit (hemoglobin), female mutators", "setting": "Polg^D257A mice [5]; female Polg^D257A mice, after 18 weeks", "value": "responded after 18 weeks"}, {"measurement": "increase in hemoglobin, male mutators", "setting": "Polg^D257A mice [5]; male Polg^D257A mice, starting at 6-weeks post-treatment", "value": "1 to 2", "unit": "g/dL"}, {"measurement": "RBC counts elevated compared to untreated mutants", "setting": "Polg^D257A mice [5]; [8]", "value": 45, "unit": "%"}, {"measurement": "hemoglobin levels increased compared to untreated mutants", "setting": "Polg^D257A mice [5]; [8]", "value": 2.4, "unit": "g/dL"}, {"measurement": "reduction in reticulocyte count", "setting": "NHD13 mice [3]", "value": 15, "unit": "%"}, {"measurement": "reduction in reticulocyte fraction (FIG. 8C)", "setting": "NHD13 mice [3]", "value": 20, "unit": "%"}, {"measurement": "response in Hb compared to vehicle controls (FIG. 8A)", "setting": "NHD13 mice [3]", "value": "minimal response"}, {"measurement": "response in RBC count compared to vehicle controls (FIG. 8B)", "setting": "NHD13 mice [3]", "value": "minimal response"}, {"measurement": "therapeutic benefit in bone marrow flow cytometry data (erythroblast populations)", "setting": "NHD13 mice [4]", "value": "difficult to detect any therapeutic benefit"}]}]}
